Test results taken from US10766869B2, “Triazoles for the treatment of demyelinating dieases” (Vertex Pharmaceuticals Incorporated, priority 2015, dated 2020).
Like-named read-outs stand apart in the source and are kept apart here.

System: primary rat mixed cortical cells
Test: In vitro myelination assay (MBP positive myelin strands, fold myelin pixels above background)
Format: cell-based
Details: Rattus norvegicus; for fold induction at 1 µM: 1.0 μM compound; for fold induction at 10 µM: 10.0 μM compound
How it was run: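 Read-out is total MBP-positive myelin strand pixels per well, detected by custom ridge-tracing software and reported as fold over untreated baseline. Primary P1 rat mixed cortical cells received compound (1.0 or 10.0 μM) for 14 days, with medium half-replaced on days 6 and 10. Standard deviation was taken across all replicates.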

[1] = relative to baseline of no added compound, read-out: Fold myelin pixels above background
[2] = read-out: Fold myelin pixels above background relative to baseline of no added compound
[3] = relative to baseline of no added compound, read-out: Fold myelin pixels above background, 1.0 μM
[4] = relative to baseline of no added compound, read-out: Fold myelin pixels above background, 10.0 μM

Compound	fold induction at 1 µM [1]	fold induction at 10 µM [1]	fold induction at 1 µM [3]	fold induction at 10 µM [4]	further results
Cc1cc(Nc2ncn(-c3cccc(C(F)(F)F)c3)n2)nc(N2CCN(C3COC3)CC2)c1 [Compound 578, 4-methyl-6-[4-(oxetan-3-yl)piperazin-1-yl]-N-[1-[3-(trifluoromethyl)phenyl]-1,2,4-triazol-3-yl]pyridin-2-amine]	1 to 10	10 to 100			
Cc1cc(Nc2ncn(-c3cc(F)cc(F)c3)n2)cc([C@@]2(C)CNC(=O)O2)c1 (single isomer, unassigned) [Compound 679]	10 to 100	1 to 10			
CCN1CCCC(Nc2cc(C)cc(Nc3ncn(-c4cc(F)cc(F)c4)n3)c2)C1 (stereo not drawn) [Compound 897, N3-[1-(3,5-difluorophenyl)-1,2,4-triazol-3-yl]-N1-(1-ethyl-3-piperidyl)-5-methyl-benzene-1,3-diamine]					fold induction at 1 µM [2]: 1 to 10; fold induction at 10 µM [2]: ≤ 1
COC1CN(c2cc(C)cc(Nc3ncn(-c4cc(F)cc(F)c4)n3)c2)C1 [Compound 2, 1-(3,5-difluorophenyl)-N-[3-(3-methoxyazetidin-1-yl)-5-methyl-phenyl]-1,2,4-triazol-3-amine]			100 to 1000	100 to 1000	
Fc1cc(F)cc(-n2cnc(Nc3cc(N4CCN(C5COC5)CC4)cc(F)n3)n2)c1 [Compound 847, N-[1-(3,5-difluorophenyl)-1,2,4-triazol-3-yl]-6-fluoro-4-[4-(oxetan-3-yl)piperazin-1-yl]pyridin-2-amine]					fold induction at 1 µM [2]: 1 to 10; fold induction at 10 µM [2]: 1 to 10
Cc1cc(Nc2ncn(-c3ccc(C)c(Cl)c3)n2)cc(N2CCN(C3COC3)CC2)c1 [Compound 767, 1-(3-chloro-4-methyl-phenyl)-N-[3-methyl-5-[4-(oxetan-3-yl)piperazin-1-yl]phenyl]-1,2,4-triazol-3-amine]	1 to 10	10 to 100			
Fc1cc(-n2cnc(Nc3cc(C(F)F)cc(N4CCN(C5CC5)CC4)c3)n2)ccn1 [Compound 153, N-[3-(4-cyclopropylpiperazin-1-yl)-5-(difluoromethyl)phenyl]-1-(2-fluoro-4-pyridyl)-1,2,4-triazol-3-amine]			100 to 1000	10 to 100	
Cc1cc(Nc2ncn(-c3ccnc(F)c3)n2)nc(N2CC(N3CCOCC3)C2)c1 [Compound 504, N-[1-(2-fluoro-4-pyridyl)-1,2,4-triazol-3-yl]-4-methyl-6-(3-morpholinoazetidin-1-yl)pyridin-2-amine]	10 to 100	10 to 100			
Cc1cc(Nc2ncn(-c3cc(F)cc(F)c3)n2)cc(C2CCNCC2O)c1 (stereo not drawn) [Compound 438, 4-[3-[[1-(3,5-difluorophenyl)-1,2,4-triazol-3-yl]amino]-5-methyl-phenyl]piperidin-3-ol]	10 to 100	≤ 1			
Cc1cc(Nc2ncn(-c3cc(F)cc(F)c3)n2)cc(O[C@H]2C[C@H](N3CCOCC3)C2)c1 [Compound 752, 1-(3,5-difluorophenyl)-N-[3-methyl-5-(3-morpholinocyclobutoxy)phenyl]-1,2,4-triazol-3-amine]	10 to 100	1 to 10			
CCc1cc(Nc2ncn(-c3cccc(F)c3F)n2)cc(N2CCN(C3COC3)CC2)c1 [Compound 276, 1-(2,3-difluorophenyl)-N-[3-ethyl-5-[4-(oxetan-3-yl)piperazin-1-yl]phenyl]-1,2,4-triazol-3-amine]			≤ 1	1 to 10	
Fc1cc(Nc2ncn(-c3ccc(F)cc3F)n2)cc(N2CCOCC2)c1 [Compound 321, 1-(2,4-difluorophenyl)-N-(3-fluoro-5-morpholino-phenyl)-1,2,4-triazol-3-amine]			1 to 10	≤ 1	
Cc1cc(Nc2ncn(-c3ccncn3)n2)cc(N2CCN(C3CC3)CC2)c1 [Compound 176, N-[3-(4-cyclopropylpiperazin-1-yl)-5-methyl-phenyl]-1-pyrimidin-4-yl-1,2,4-triazol-3-amine]			100 to 1000	100 to 1000	
Cc1cc(Nc2ncn(-c3cc(F)cc(F)c3)n2)cc(N2CCC(N3CCCC3=O)CC2)c1 [Compound 161, 1-[1-[3-[[1-(3,5-difluorophenyl)-1,2,4-triazol-3-yl]amino]-5-methyl-phenyl]-4-piperidyl]pyrrolidin-2-one]			10 to 100	10 to 100	
Cc1cc(Nc2ncn(-c3cc(F)cc(F)c3)n2)cc(NC2CN(C3COC3)C2)c1 [Compound 881, N3-[1-(3,5-difluorophenyl)-1,2,4-triazol-3-yl]-5-methyl-N1-[1-(oxetan-3-yl)azetidin-3-yl]benzene-1,3-diamine]					fold induction at 1 µM [2]: 10 to 100; fold induction at 10 µM [2]: ≤ 1
Cc1cc(Nc2ncn(-c3cccnc3)n2)cc(N2CCN(C3COC3)CC2)c1 [Compound 275, N-[3-methyl-5-[4-(oxetan-3-yl)piperazin-1-yl]phenyl]-1-(3-pyridyl)-1,2,4-triazol-3-amine]			10 to 100	100 to 1000	
Cc1cc(Nc2ncn(-c3ccc(F)cc3)n2)cc(C2COC2)c1 [Compound 409, 1-(4-fluorophenyl)-N-[3-methyl-5-(oxetan-3-yl)phenyl]-1,2,4-triazol-3-amine]	1000 to 10000	100 to 1000			
Cc1cc(Nc2ncn(-c3ccccc3)n2)cc(N2CCCN(C3CC3)CC2)c1 [Compound 337, N-[3-(4-cyclopropyl-1,4-diazepan-1-yl)-5-methyl-phenyl]-1-phenyl-1,2,4-triazol-3-amine]			100 to 1000	≤ 1	
Cc1cc(Nc2ncn(-c3ccc(F)c(F)c3)n2)c(F)c(OC2CCOC2)c1 (single isomer, unassigned) [Compound 1009, 1-(3,4-difluorophenyl)-N-(2-fluoro-5-methyl-3-tetrahydrofuran-3-yloxy-phenyl)-1,2,4-triazol-3-amine]					fold induction at 1 µM [2]: 10 to 100; fold induction at 10 µM [2]: 1 to 10
c1ccc(-n2cnc(Nc3cc(C4CCOCC4)cc(C4CCOCC4)c3)n2)cc1 [Compound 10, N-[3,5-di(tetrahydropyran-4-yl)phenyl]-1-phenyl-1,2,4-triazol-3-amine]			1 to 10	≤ 1	
FC(F)c1cc(Nc2ncn(-c3ccccn3)n2)nc(N2CCN(C3COC3)CC2)c1 [Compound 532, 4-(difluoromethyl)-6-[4-(oxetan-3-yl)piperazin-1-yl]-N-[1-(2-pyridyl)-1,2,4-triazol-3-yl]pyridin-2-amine]	10 to 100	10 to 100			
CCc1cc(F)cc(-n2cnc(Nc3cc(C)cc(N4CCN(C5COC5)CC4)c3)n2)c1 [Compound 206, 1-(3-ethyl-5-fluoro-phenyl)-N-[3-methyl-5-[4-(oxetan-3-yl)piperazin-1-yl]phenyl]-1,2,4-triazol-3-amine]			100 to 1000	100 to 1000	
Cc1cc(Nc2ncn(-c3cc(F)cc(F)c3)n2)cc(N2CC(F)(CO)C2)c1 [Compound 1079, [1-[3-[[1-(3,5-difluorophenyl)-1,2,4-triazol-3-yl]amino]-5-methyl-phenyl]-3-fluoro-azetidin-3-yl]methanol]					fold induction at 1 µM [2]: 10 to 100; fold induction at 10 µM [2]: ≤ 1
c1ccc(-n2cnc(Nc3cc(C4CCOCC4)cc(N4CCOCC4)c3)n2)cc1 [Compound 251, N-(3-morpholino-5-tetrahydropyran-4-yl-phenyl)-1-phenyl-1,2,4-triazol-3-amine]			100 to 1000	1 to 10	
